Two molecules from patent US6410542B1, “Aminotetrazole derivatives useful as nitric oxide synthase inhibitors” (G. D. Searle & Co., priority 1994, dated 2002) can be followed below.

Data set [1] deals with Human inducible NOS (hiNOS) (Homo sapiens, UniProt P35228). Briefly: Citrulline assay for nitric oxide synthase, hiNOS. In kind it is biochemical.
Procedure: Citrulline Assay for Nitric Oxide Synthase Nitric oxide synthase activity was measured by monitoring the conversion of L-[2,3-3H]-arginine to L-[2,3-3H]-citrulline (1,2). […] For constitutive NOS, calmodulin was included at a final concentration of 40-100 nM. Following incubation at 37° C. for 15 minutes, the reaction was terminated by addition of 300 μL cold buffer containing 10 mM EGTA, 100 mM HEPES (pH5.5) and 1.0 mM L-citrulline. The [3H]-citrulline was separated by chromatography on Dowex 50W X-8 cation exchange resin and radioactivity quantified with a liquid scintillation counter.
Data set [2] is described as follows: Physical properties on exposure to moisture in room air. Type of data set: physicochemical. To be noted: normal room air. An excerpt: It is also an advantage in that the compounds of the present invention have preferred physical properties as compared to compounds known in the art. […] In contrast, NIL, which is disclosed in WO 93/13055 when the hydrochloride salt can be isolated as a colorless crystal, but has the property of deliquescence. The compound quickly becomes a very viscous sticky oil upon exposure to moisture in normal room air which makes it difficult to handle.

Where a name gives a salt, the structure may show the parent alone.

Chain of Human inducible NOS (hiNOS) (P35228 whole entry): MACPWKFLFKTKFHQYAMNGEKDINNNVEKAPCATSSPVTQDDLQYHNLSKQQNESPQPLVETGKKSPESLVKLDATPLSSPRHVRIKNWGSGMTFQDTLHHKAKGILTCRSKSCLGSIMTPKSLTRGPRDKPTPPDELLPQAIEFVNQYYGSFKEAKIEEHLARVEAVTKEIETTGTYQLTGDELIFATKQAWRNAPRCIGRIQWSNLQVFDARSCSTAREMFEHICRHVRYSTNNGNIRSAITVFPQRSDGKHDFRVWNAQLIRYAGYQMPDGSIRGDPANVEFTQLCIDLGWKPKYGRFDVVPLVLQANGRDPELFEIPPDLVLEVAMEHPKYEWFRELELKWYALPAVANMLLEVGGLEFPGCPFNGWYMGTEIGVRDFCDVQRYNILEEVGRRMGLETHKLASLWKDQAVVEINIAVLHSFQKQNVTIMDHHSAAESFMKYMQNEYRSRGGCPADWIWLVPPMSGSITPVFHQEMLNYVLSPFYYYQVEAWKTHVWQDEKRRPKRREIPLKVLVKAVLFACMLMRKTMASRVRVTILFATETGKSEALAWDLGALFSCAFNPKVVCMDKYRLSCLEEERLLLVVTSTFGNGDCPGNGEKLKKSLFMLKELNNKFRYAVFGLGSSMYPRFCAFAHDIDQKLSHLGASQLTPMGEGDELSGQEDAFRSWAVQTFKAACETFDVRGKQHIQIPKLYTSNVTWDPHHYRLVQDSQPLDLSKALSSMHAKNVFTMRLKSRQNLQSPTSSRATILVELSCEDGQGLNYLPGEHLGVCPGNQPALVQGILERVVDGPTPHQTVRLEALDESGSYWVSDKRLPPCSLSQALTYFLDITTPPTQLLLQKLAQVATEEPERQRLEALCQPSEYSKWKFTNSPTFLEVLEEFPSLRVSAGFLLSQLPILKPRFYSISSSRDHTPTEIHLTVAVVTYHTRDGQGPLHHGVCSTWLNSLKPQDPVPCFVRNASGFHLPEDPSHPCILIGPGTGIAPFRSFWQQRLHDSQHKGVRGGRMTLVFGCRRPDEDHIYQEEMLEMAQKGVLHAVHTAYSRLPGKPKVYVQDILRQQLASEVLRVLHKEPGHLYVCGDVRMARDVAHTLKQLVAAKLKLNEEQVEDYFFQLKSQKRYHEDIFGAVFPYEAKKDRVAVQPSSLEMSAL

On to `CC(=N)NCCCC[C@H](N)C(=O)Nc1nnn[nH]1` [Example 1, 2S-amino-6-[(1-iminoethyl)amino]-N-(1H-tetrazol-5-yl) hexanamide, Hydrate, Dihydrochloride], for which, in data set [1] (hiNOS over hecNOS), the Selectivity is listed as 113. The “selectivity compared with NIL” value in data set [1] (in words) is on record as “more selective than NIL”. Moreover, the IC50 in data set [1] (recombinant enzyme, L-arginine to L-citrulline conversion, 37° C., 15 minutes) amounted to 21.4 µM. Besides, the “physical form / behaviour on exposure to moisture” value in data set [2] is recorded as “crystalline product”.

For the molecule `CC(N)=NCCCC[C@@H](N)C(=O)O` [NIL, reference compound], in data set [2], the “physical form / behaviour on exposure to moisture” value is “deliquescence”.

The term IC50 denotes the concentration needed to halve the response being measured.
